Assay results from ChEMBL document CHEMBL1201862, “PubChem BioAssay data set” (2004).
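How tested: cells in 96-well plates exposed to compound for 48 hours at five concentrations. GI50: concentration for 50% inhibition of growth.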 Activity calls are given as the source filed them. Cut-off read from the data, not from the text of the source: active = GI50 up to about 1.1 µM and inactive = higher.

Experiments:
Assay in all cases: growth of human tumour cells (NCI), 48 h
EKVX = tested on: EKVX
HCC 2998 = tested on: HCC 2998
HCT-15 = tested on: HCT-15
HL-60 = tested on: HL-60
HOP-62 = tested on: HOP-62
HOP-92 = tested on: HOP-92
IGROV-1 = tested on: IGROV-1
LOX IMVI = tested on: LOX IMVI
M14 = tested on: M14
MDA-MB-435 = tested on: MDA-MB-435
NCI-H226 = tested on: NCI-H226
NCI-H23 = tested on: NCI-H23
NCI/ADR-RES = tested on: NCI/ADR-RES
OVCAR-4 = tested on: OVCAR-4
OVCAR-5 = tested on: OVCAR-5
OVCAR-8 = tested on: OVCAR-8
SF-268 = tested on: SF-268
SK-MEL-2 = tested on: SK-MEL-2
SNB-19 = tested on: SNB-19
TK-10 = tested on: TK-10

Row | SMILES | GI50 (EKVX) | GI50 (HCC 2998) | GI50 (HCT-15) [µM] | GI50 (HL-60) | GI50 (HOP-62) | GI50 (HOP-92) | GI50 (IGROV-1) | GI50 (LOX IMVI) | GI50 (M14) | GI50 (MDA-MB-435) | GI50 (NCI-H226) | GI50 (NCI-H23) | GI50 (NCI/ADR-RES) | GI50 (OVCAR-4) | GI50 (OVCAR-5) | GI50 (OVCAR-8) | GI50 (SF-268) | GI50 (SK-MEL-2) | GI50 (SNB-19) | GI50 (TK-10)
1 | N#CC(NNC(=O)c1ccccc1O)c1c(O)ccc2ccccc12 (configuration not stated) | 5.66 µM (inactive) | 9.55 µM (inactive) | 2.89 | 0.713 µM (active) | 3.33 µM (inactive) | 5.71 µM (inactive) | 4.4 µM (inactive) | 0.877 µM (active) | 3.46 µM (inactive) | 8.53 µM (inactive) | 3.71 µM (inactive) | 4.65 µM (inactive) | 3.44 µM (inactive) | 2.58 µM (inactive) | 4.38 µM (inactive) | 3.16 µM (inactive) | 3.24 µM (inactive) | 3.72 µM (inactive) | 13.6 µM (inactive) | 4.7 µM (inactive)
2 | CN(/N=C/c1ccc(Cl)cc1)C1=NCCCCN1 | > 100 µM (inactive) | 44.6 µM (inactive) | > 100 | 30.3 µM (inactive) | > 100 µM (inactive) | 47.3 µM (inactive) | > 100 µM (inactive) | 22.1 µM (inactive) | 24.6 µM (inactive) | 72.1 µM (inactive) | > 100 µM (inactive) | > 100 µM (inactive) | > 100 µM (inactive) | > 100 µM (inactive) | > 100 µM (inactive) | > 100 µM (inactive) | > 100 µM (inactive) | > 10 µM (inactive) | > 100 µM (inactive) | > 100 µM (inactive)
3 | C[C@H](CCC1=NCCN1)[C@H]1CC[C@H]2[C@@H]3CC[C@@H]4C[C@H](O)CC[C@]4(C)[C@H]3C[C@H](O)[C@]12C | 18.5 µM (inactive) | 13.5 µM (inactive) | 53.1 | 10.8 µM (inactive) | 15.5 µM (inactive) | 12.2 µM (inactive) | 7.38 µM (inactive) | 11.2 µM (inactive) | 17.4 µM (inactive) | 14.5 µM (inactive) | 14.3 µM (inactive) | 14.1 µM (inactive) | > 100 µM (inactive) | 15.9 µM (inactive) | 14.5 µM (inactive) | 15.5 µM (inactive) | 7.36 µM (inactive) | 13.8 µM (inactive) | 8.71 µM (inactive) | 14 µM (inactive)
4 | Cc1ccc2c3c(cnc2n1)C(=O)OCCN3C | > 100 µM (inactive) | > 100 µM (inactive) | > 100 | > 100 µM (inactive) | > 100 µM (inactive) | > 100 µM (inactive) | > 100 µM (inactive) | > 100 µM (inactive) | > 100 µM (inactive) | > 100 µM (inactive) | – | > 100 µM (inactive) | > 100 µM (inactive) | > 100 µM (inactive) | > 100 µM (inactive) | > 100 µM (inactive) | > 100 µM (inactive) | > 100 µM (inactive) | > 100 µM (inactive) | > 100 µM (inactive)
5 | O=C(CC1C=CCS1(=O)=O)NCc1ccccc1 (configuration not stated) | > 100 µM (inactive) | > 100 µM (inactive) | > 100 | > 100 µM (inactive) | > 100 µM (inactive) | > 100 µM (inactive) | > 100 µM (inactive) | > 100 µM (inactive) | > 100 µM (inactive) | > 100 µM (inactive) | > 100 µM (inactive) | > 100 µM (inactive) | > 100 µM (inactive) | > 100 µM (inactive) | > 100 µM (inactive) | > 100 µM (inactive) | > 100 µM (inactive) | – | > 100 µM (inactive) | > 100 µM (inactive)
6 | COc1cc(S(=O)(=O)Nc2ccc(-c3csc(N4C(=O)CSC4c4cccs4)n3)cc2)ccc1Cl (configuration not stated) | 50.8 µM (inactive) | 15.6 µM (inactive) | 32.6 | 14.5 µM (inactive) | 42.7 µM (inactive) | 23.7 µM (inactive) | 27.1 µM (inactive) | 18.7 µM (inactive) | 46.9 µM (inactive) | 29.5 µM (inactive) | 27.9 µM (inactive) | 31.3 µM (inactive) | > 100 µM (inactive) | 18.4 µM (inactive) | > 100 µM (inactive) | 41.5 µM (inactive) | 19.8 µM (inactive) | 20.5 µM (inactive) | 33.3 µM (inactive) | –
7 | CC(C)C[C@H](NC(=O)[C@H](Cc1cccc2ccccc12)NS(=O)(=O)c1cccc2cccnc12)B(O)O | 0.372 µM (active) | 0.00219 µM (active) | 0.227 | < 0.01 µM (active) | 0.0444 µM (active) | 0.00726 µM (active) | < 0.0208 µM (active) | < 0.0118 µM (active) | – | < 0.01 µM (active) | 0.000208 µM (active) | < 0.0226 µM (active) | 2.32 µM (inactive) | 0.0109 µM (active) | < 0.0142 µM (active) | 0.0557 µM (active) | – | < 0.0158 µM (active) | < 0.0225 µM (active) | < 0.0285 µM (active)
8 | O=c1c2cc([N+](=O)[O-])ccc2[nH]n1Cc1ccccn1 | > 100 µM (inactive) | > 100 µM (inactive) | > 100 | > 100 µM (inactive) | > 100 µM (inactive) | > 100 µM (inactive) | > 100 µM (inactive) | > 100 µM (inactive) | > 100 µM (inactive) | > 100 µM (inactive) | > 100 µM (inactive) | > 100 µM (inactive) | > 100 µM (inactive) | > 100 µM (inactive) | > 100 µM (inactive) | > 100 µM (inactive) | > 100 µM (inactive) | – | > 100 µM (inactive) | > 100 µM (inactive)
9 | CC(=O)O[C@H]1C(=O)[C@@]2(C)[C@H]([C@H](OC(=O)c3ccccc3)[C@]3(O)C[C@H](OC(=O)[C@H](O)[C@@H](NC(=O)c4ccc(N(C)C)cc4)c4ccccc4)C(C)=C1C3(C)C)[C@]1(OC(C)=O)CO[C@@H]1C[C@@H]2O | 0.112 µM (active) | < 0.005 µM (active) | 0.337 | < 0.005 µM (active) | 0.0136 µM (active) | > 28.8 µM (inactive) | 0.00962 µM (active) | < 0.005 µM (active) | < 0.005 µM (active) | < 0.005 µM (active) | 0.008 µM (active) | 0.00849 µM (active) | 2.21 µM (inactive) | 2.92 µM (inactive) | < 0.005 µM (active) | < 0.005 µM (active) | – | 0.05 µM (active) | < 0.005 µM (active) | 0.0723 µM (active)
10 | CC(C)=CCC/C(C)=C/CC/C(C)=C/CC/C(C=O)=C/CC/C(C)=C\CC/C(C)=C/CC/C(C)=C/CC/C(C)=C/CC1=CC(=O)C=CC1=O | > 100 µM (inactive) | > 100 µM (inactive) | > 100 | – | > 100 µM (inactive) | > 100 µM (inactive) | 31.8 µM (inactive) | 80.2 µM (inactive) | 45.3 µM (inactive) | 56.4 µM (inactive) | – | 22.9 µM (inactive) | > 100 µM (inactive) | > 100 µM (inactive) | > 100 µM (inactive) | 46.5 µM (inactive) | > 100 µM (inactive) | 31.8 µM (inactive) | > 100 µM (inactive) | > 100 µM (inactive)
11 | Cc1cc2c3c(c1)CCCN3CCC2 | > 10 µM (inactive) | > 10 µM (inactive) | > 10 | > 10 µM (inactive) | > 10 µM (inactive) | > 10 µM (inactive) | > 10 µM (inactive) | > 10 µM (inactive) | > 10 µM (inactive) | > 10 µM (inactive) | > 10 µM (inactive) | > 10 µM (inactive) | > 10 µM (inactive) | > 10 µM (inactive) | – | > 10 µM (inactive) | > 10 µM (inactive) | > 10 µM (inactive) | > 10 µM (inactive) | > 10 µM (inactive)
12 | CC1=C2C(=O)OCC23C=COC3(C)O1 (configuration not stated) | 35.7 µM (inactive) | 69.3 µM (inactive) | 26.2 | – | 34.2 µM (inactive) | 45 µM (inactive) | 32.7 µM (inactive) | 30.3 µM (inactive) | 24.7 µM (inactive) | 20.7 µM (inactive) | 28.4 µM (inactive) | 39 µM (inactive) | 34.9 µM (inactive) | 29.4 µM (inactive) | 47.1 µM (inactive) | 35.4 µM (inactive) | 60.7 µM (inactive) | 32.6 µM (inactive) | 58.9 µM (inactive) | 42 µM (inactive)
13 | CC(=O)N[C@H]1CCCC[C@@H]1OC(C)=O | > 100 µM (inactive) | > 100 µM (inactive) | > 100 | > 100 µM (inactive) | > 100 µM (inactive) | > 100 µM (inactive) | > 100 µM (inactive) | > 100 µM (inactive) | – | > 100 µM (inactive) | > 100 µM (inactive) | > 100 µM (inactive) | > 100 µM (inactive) | > 100 µM (inactive) | > 100 µM (inactive) | > 100 µM (inactive) | – | > 100 µM (inactive) | – | > 100 µM (inactive)
14 | COc1ccc(C2=Nn3c(nnc3-c3ccccc3)S/C2=C\c2ccc(-c3ccc([N+](=O)[O-])cc3)o2)cc1 | 50.9 µM (inactive) | 28 µM (inactive) | 16.5 | 14.5 µM (inactive) | 52.4 µM (inactive) | 54.8 µM (inactive) | 56.9 µM (inactive) | 25 µM (inactive) | 25.4 µM (inactive) | 5.83 µM (inactive) | – | – | 25.2 µM (inactive) | 30 µM (inactive) | 47.6 µM (inactive) | 30.5 µM (inactive) | 28.8 µM (inactive) | 15.8 µM (inactive) | 33.3 µM (inactive) | –
15 | CCCCCc1cc2cc3c(c(O)c2c(=O)[nH]1)C1(CCC3)C(=O)c2c(O)c3c(c(O)c2C1=O)C(=O)C(OC)=CC3=O (configuration not stated) | 0.361 µM (active) | 2.05 µM (inactive) | 0.42 | 0.478 µM (active) | 3.33 µM (inactive) | 0.433 µM (active) | 1.03 µM (active) | 0.661 µM (active) | 0.908 µM (active) | 0.908 µM (active) | 1.87 µM (inactive) | 0.828 µM (active) | 4.56 µM (inactive) | 1.44 µM (inactive) | 2.02 µM (inactive) | 0.714 µM (active) | 0.807 µM (active) | 1.24 µM (inactive) | 1.49 µM (inactive) | –
